Experiment [1] has as its system IL-1β transcripts in DBTRG-05MG cells. The experiment is described as follows: Inhibition of TNF-stimulated IL-1β transcripts (RT-PCR). Type of experiment: cell-based, human. The settings on record: 50 ng/ml TNFα, 16 h; read-out: IC50, inhibition of TNFα-induced IL-1β transcripts / cytokine expression. The procedure: FIG. 5 depicts Bioimpact properties of omega-3-derived Resolvins. A) Human glioma cells: Inhibition of TNF-stimulated IL-1β transcripts DBTRG-05MG cells 10^6/ml were stimulated with 50 ng/ml of human recombinant TNFα for 16 hours to induce expression of IL-1β transcripts. Concentration dependence with COX-2 products: 17-HDHA (n), 13-HDHA (l)and di-/tri-HDHA (n). […] (insets) Results are representative of RT-PCR gels of MG cells exposed to 100 nM of 13-HDHA or 17-HDHA and graphed after normalization of the IL-1β transcripts using GAPDH. B) Influence of eicosanoids and docosanoids on fMLP-induced neutrophil migration across micovascular endothelial monolayers Neutrophils (1×10^6 cells/monolayer) were exposed to vehicle containing buffer, or indicated concentrations of aspirin-triggered LXA4 analog (closed diamonds) 5S,12,18R-triHEPE (closed squares), 17R-HDHA (closed circles) or 13-HDHA (closed triangles) for 15 minutes at 37° C. Neutrophils were then layered on HMVEC monolayers and stimulated to transmigrate by a 10^−8 M fMLP gradient for 1 hr at 37° C. Transmigration was assessed by quantitation of the neutrophil marker myeloperoxidase. Results are presented as mean±SEM number of PMN (n=8-12 monolayers per condition). […]
Human glioma cells DBTRG-05MG cells (ATCC) were cultured as recommended by ATCC. […] Results were analyzed using the NIH Image program (http://rsb.info.nih.gov/nih-image).

Experiment [2] relates to PMN infiltration. The experiment can be described thus: Zymosan A-induced peritonitis. Type of experiment: in vivo, FVB mice. As to conditions: for inhibition of PMN/leukocyte infiltration: i.v. bolus before zymosan A, lavage at 2 h. As for the experimental part: FIG. 5 depicts Bioimpact properties of omega-3-derived Resolvins. A) Human glioma cells: Inhibition of TNF-stimulated IL-1β transcripts DBTRG-05MG cells 10^6/ml were stimulated with 50 ng/ml of human recombinant TNFα for 16 hours to induce expression of IL-1β transcripts. Concentration dependence with COX-2 products: 17-HDHA (n), 13-HDHA (l)and di-/tri-HDHA (n). […] (insets) Results are representative of RT-PCR gels of MG cells exposed to 100 nM of 13-HDHA or 17-HDHA and graphed after normalization of the IL-1β transcripts using GAPDH. B) Influence of eicosanoids and docosanoids on fMLP-induced neutrophil migration across micovascular endothelial monolayers Neutrophils (1×10^6 cells/monolayer) were exposed to vehicle containing buffer, or indicated concentrations of aspirin-triggered LXA4 analog (closed diamonds) 5S,12,18R-triHEPE (closed squares), 17R-HDHA (closed circles) or 13-HDHA (closed triangles) for 15 minutes at 37° C. Neutrophils were then layered on HMVEC monolayers and stimulated to transmigrate by a 10^−8 M fMLP gradient for 1 hr at 37° C. Transmigration was assessed by quantitation of the neutrophil marker myeloperoxidase. Results are presented as mean±SEM number of PMN (n=8-12 monolayers per condition). C) Reduction of PMN in murine peritonitis and skin pouch peritonitis: Compounds (100 ng in 120 μL sterile saline) were injected by intravenous bolus injection into the mouse tail vein and followed by 1 ml zymosan A (1 mg/ml) into the peritoneum. Peritoneal lavages were collected (2 h) and cell types were enumerated.
Human PMN transendothelial migration was quantitated by monitoring myeloperoxidase (MPO) an azurophilic granule marker as in (34, 37). Inflammatory exudates were initiated with intrapouch injection of recombinant mouse TNFα (100 ng/pouch; R&D Systems) into dorsal air pouches (10) of 6-8 wk male FVB mice fed laboratory rodent diet 5001 (Lab Diet, Purina Mills) containing less than 0.25% arachidonic acid, 1.49% EPA and 1.86% DHA followed by ASA (500 μg) at 3.5 h and 300 μg DHA/pouch at 4 h post-TNFα injection. At 6 h (within the resolution phase), pouches were lavaged (3 ml saline) and exudate cells were enumerated Inhibition of TNFα stimulated (100 ng/pouch) PMN infiltration with i.v. tail injection of either 17R-HDHA (as prepared with COX-2 vide infra), 5S,12,18R-HEPE, or a 15-epi-LXA4 analog were determined with pouch lavages taken at 4 h. Peritonitis was performed using 6 to 8-week-old FVB male mice (Charles River Laboratories) fed laboratory Rodent Diet 5001 (Purina Mills) that were anesthetized with isoflurane, and compounds to be tested (125 μl) were administered intravenously. Zymosan A in 1 ml (1 mg/ml) was injected ˜1-1.5 min later in the peritoneum. Each test compound (100 ng/incubation, i.e. 17R-HDHA in ethanol) or vehicle alone was suspended in ˜5 μl and mixed in sterile saline 120 μl. Two hours after the intraperitoneal injections, and in accordance with the Harvard Medical Area Standing Committee on Animals protocol #02570, mice were euthanized and peritoneal lavages rapidly collected for enumeration.
Peritonitis was induced in 6 to 8 week old male FVB mice by peritoneal injection of 1 mg Zymosan A. Compounds 4,17S and 10,17S-diHDHA were injected by intravenous bolus injection, 1.5 minutes before Zymosan A treatment. Two hours after induction of peritonitis, rapid peritoneal lavages were collected and cell type enumeration was performed.

The subject of experiment [3] is airway leukocyte accumulation. The experiment can be described thus: OVA sensitization and aerosol challenge: lung histology and BAL leukocytes. Type of experiment: in vivo. As for the experimental part:
To determine if PD1 and Resolvin E1 had properties of a counter-regulatory mediator during airway inflammation, physiologically relevant quantities (2, 20 or 200 ng) were administered by intravenous injection to allergen sensitized animals just prior (30 min) to aerosol challenge on 4 consecutive days. […] In conjunction with decreased airway inflammation, levels of the counter-regulatory eicosanoid LXA4 were also […] in the presence of PD1 (data not shown).
Five to seven week old male FvB mice (Charles River Laboratories, Wilmington, Mass.) were housed in isolation cages under viral antibody-free conditions. Mice were fed a standard diet (Laboratory Rodent Diet 5001, PMI Nutrition International, Richmond, Ind.) that contained no less than 4.5% total fat with 0.26% omega-3 fatty acids and <0.01% C20:4. After Harvard Medical Area IRB approval (Protocol #02570), mice were sensitized with intraperitoneal injections of ovalbumin (OVA) (Grade III; Sigma Chemical Co., St. Louis, Mo.) (10 μg) plus 1 mg aluminum hydroxide (ALUM) (J. T. Baker Chemical Co.; Phillipsburg, N.J.) as adjuvant in 0.2 ml PBS on days 0 and 7. On days 14, 15, 16 and 17, the mice received PD1 (2, 20 or 200 ng), Resolvin E1 (200 ng) (products of biogenic synthesis (Hong, Gronert et al. 2003)), or PBS with 1.6 mM CaCl2 and 1.6 mM MgCl2 (0.1 ml) by intravenous injection 30 min prior to an aerosol challenge containing either PBS or 6% OVA for 25 min/day. On day 18, 24 h after the last aerosol challenge, airway responsiveness to aerosolized methacholine (0, 20, 50 and 75 mg, 10 sec) was measured, bilateral bronchoalveolar lavage (BAL) (2 aliquots of 1 ml PBS plus 0.6 mM EDTA) was performed or tissues were harvested for histological analysis. Lung resistance was measured using a Flexivent ventilator (SciReq, Montreal, Quebec). Resistance was measured as a function of time for each animal, and peak and average values for each dose of methacholine were recorded. No BAL or histological analysis was performed on those animals undergoing airway hyper-responsiveness or lipid extraction studies.
Tissue morphometry was performed by a member (K. Haley) of the Lung Histopathology Core Laboratory at Brigham and Women's Hospital who was blinded to the experimental conditions prior to histological analyses. Three fields per slide were examined at 200× magnification for vessels, large airways and alveoli with EOS counted at 400× magnification in randomly assigned fields. Vessels were identified by perivascular smooth muscle, and large airways were identified by at least ½ their diameter either cuboidal or columnar epithelia. Measurement of inflammatory mediators was determined in cell-free BAL fluid (2000 g, 10 min) by sensitive and specific ELISAs, in tandem, for interleukin-5 (IL-5), IL-12, IL-13, PGD2 (R&D Systems, Minneapolis, Minn.), cysteinyl LTs, (Cayman Chemical Co, Ann Arbor, Mich.), and LXA4 (Neogen, Lexington, Ky.). Cells in BALF were resuspended in PBS, enumerated by hemocytometer, and concentrated onto microscope slides by cytocentrifuge (STATspin) (265 g). Cells were stained with a Wright-Giemsa stain (Sigma Chemical Co.) to determine leukocyte differentials (after counting ≧200 cells).

The target of experiment [4] is T1, human recombinant COX-2 (Homo sapiens, UniProt P35354).
T1 construct: made in house; host or cells: Sf9 insect cells (microsomal fractions)
T1 sequence (P35354 18-604): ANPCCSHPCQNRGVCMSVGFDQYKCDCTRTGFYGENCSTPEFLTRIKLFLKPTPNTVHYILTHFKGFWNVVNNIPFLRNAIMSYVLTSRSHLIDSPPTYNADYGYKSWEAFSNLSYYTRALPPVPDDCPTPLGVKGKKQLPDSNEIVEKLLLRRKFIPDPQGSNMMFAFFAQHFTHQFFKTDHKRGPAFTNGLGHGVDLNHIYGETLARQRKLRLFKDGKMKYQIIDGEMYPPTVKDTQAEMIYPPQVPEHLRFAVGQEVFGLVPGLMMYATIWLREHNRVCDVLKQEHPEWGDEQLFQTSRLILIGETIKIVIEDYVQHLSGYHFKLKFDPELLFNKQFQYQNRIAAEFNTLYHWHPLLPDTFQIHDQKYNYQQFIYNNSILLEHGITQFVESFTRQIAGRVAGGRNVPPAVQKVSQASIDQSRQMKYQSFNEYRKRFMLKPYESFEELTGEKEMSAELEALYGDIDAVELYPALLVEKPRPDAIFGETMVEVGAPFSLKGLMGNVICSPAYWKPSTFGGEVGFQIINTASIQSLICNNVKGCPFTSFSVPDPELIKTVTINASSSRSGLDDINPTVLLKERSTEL
The experiment is described as follows: Impact of NSAIDs on COX-2 conversion of DHA. Type of experiment: biochemical. The procedure: Human recombinant COX-2 was overexpressed in Sf9 insect cells (ATCC). The microsomal fractions (˜8 μl) were suspended in Tris (100 mM, pH 8.0) as in (35). ASA was incubated (˜2 mM, 37° C., 30 min) with COX-2 before addition of DHA (10 μM), or in some experiments [1-^14C]-labeled DHA (from American Radiolabeled Chemicals, Inc.), and conversions were monitored in parallel using [1^−14C]-labeled C20:4 (with ASA) (as in FIG. 2; also see text).
Incubations were extracted with deuterium-labeled internal standards (15-HETE and C20:4) for LC-MS-MS analysis as in (33) using a Finnigan LCQ liquid chromatography ion trap tandem mass spectrometer (San Jose, Calif.) equipped with a LUNA C18-2 (150×2 mm×5 μm or 100×2 mm×5 μm) column and a rapid spectra scanning UV diode array detector that monitored UV absorbance ˜0.2 min prior to samples entering the MS-MS. All intact cell incubations and in vivo exudates were stopped with 2 ml cold methanol and kept at −80° C. for >30 minutes. Samples were extracted using C18 solid phase extraction and analyzed using GC-MS (see Table 2) (Hewlett-Packard), thin layer chromatography or tandem liquid chromatography-mass spectrometry (LC-MS-MS). Also, a Chiralcel OB-H column (4.6×250 mm; J. T. Baker) was used to determine R and S alcohol configurations of monohydroxy-PUFA using isocratic mobile phase (hexane:isopropanol; 97.5:2.5, vol:vol, with a 0.6 ml/min flow rate). Detailed procedures for isolation, quantitation and structural determination of lipid-derived mediators were recently reported (36) and used here essentially as reported for elucidation of novel products.
Results are the mean±SEM, n=3. Products were extracted, identified, and quantitated using deuterium internal standards and LC-MS-MS (see Methods).

Consider seven compounds from patent US8933270B2, “Use of docasatrienes, resolvins, and their stable analogs in the treatment of airway diseases and asthma” (The Brigham and Women's Hospital, Inc., priority 2002, dated 2015).

As to `CC/C=C\C/C=C\C=C\C(O)C/C=C\C/C=C\C/C=C\CCC(=O)O` (stereo not shown) [13-HDHA, 13-hydroxy-DHA], the IC50 in experiment [1] was about 0.05 nM. Turning to `CC/C=C\C[C@H](O)/C=C/C=C\C=C\[C@@H](O)C/C=C\CC#CCCC(=O)O` [4,5-dehydro 10,17S-dihydroxy DHA], in experiment [2] (100 ng dose), the “inhibition of the PMN infiltration” value came to 40%. For `CC[C@@H](O)/C=C/C=C\C[C@@H](O)/C=C/C=C/C=C\[C@@H](O)CCCC(=O)O` [Resolvin E1, 5S,12R,18R-trihydroxy-6Z,8E,10E,14Z,16E-eicosapentaenoic acid], the “eosinophil and lymphs (FIG. 25)” value in experiment [3] (10,17-DT 20 ng and 200 ng, Resolvin E1 200 ng) is given as “reduction”. For the same compound, in experiment [3] (PD1 2, 20 or 200 ng, Resolvin E1 200 ng i.v.), the “total leukocytes, EOS and Lymphs in BAL fluid” value is given as “decreased”. Further, in experiment [2], the “inhibition of PMN/leukocyte infiltration” value is recorded as “reduction of neutrophil infiltration”. As usually defined, the inhibition is how much of the control response was suppressed. Turning to `CC(=O)Nc1ccc(O)cc1` [Acetaminophen, acetaminophen], in experiment [4] (NSAID incubated 30 min with COX-2, ASA 2 mM, indomethacin 200 μM, acetaminophen 500 μM, NS398 100 μM, mean±SEM, n=3), the “% Increase of 17-HDHA” value was found to be 0.0%. For the same compound, the inhibition at 500 µM in experiment [4] (read-out: % Inhibition of 13-HDHA) stood at 87.7 ± 4.3%. For the same compound, the “formation of 17R-HDHA from DHA by NSAID-treated COX-2” value in experiment [4] (recombinant COX-2 incubations) is listed as “did not give appreciable amounts of 17R-HDHA”.

In the case of `CC/C=C\C[C@@H](O)/C=C/C=C\C/C=C\C=C\[C@@H](O)C/C=C\CCC(=O)O` [7S,17R-diHDHA, 7S,17R-dihydroxy-docosa-4Z,8E,10Z,13Z,15E,19Z-hexaenoic acid], the “inhibition of PMN/leukocyte infiltration” value in experiment [2] is listed as “potent inhibitor”.

Take `CCC(O)/C=C/C=C\C/C=C\C/C=C\C=C\[C@@H](O)CCCC(=O)O` (mixture of isomers) [5S,18(+/−)-diHEPA]: the “potency relative to comparator at equal dose” value in experiment [2] (PMN/leukocyte infiltration, FIG. 16 and FIG. 18) is “equipotent to Resolvin E1”. Besides, the entries for the “inhibition of PMN/leukocyte infiltration” value in experiment [2] and in experiment [2] (listed as 5S,18(+/−)-diHEPE) were “downregulation of PMN infiltration” and “reduction of neutrophil infiltration”, respectively. Consider `CC/C=C\C[C@H](O)/C=C/C=C\CC(O)\C=C/C=C/C=C/[C@@H](O)CCC(=O)O` (stereo partly drawn) [4S,11,17R-triHDHA, 4S,11,17S,-trihydroxy-docosa-5E,7E,9Z,13Z,15E,19Z-hexaenoic acid], for which the “inhibition of PMN/leukocyte infiltration” value in experiment [2] is listed as “potent inhibitor”.
